The experiment concerns human subjects. The experiment in a line: Phase I single-blind, placebo-controlled study of pyridostigmine bromide with or without aprepitant. The settings on record: single oral dose of aprepitant (up to 125 mg) co-administered with first intolerable dose (FID) of oral pyridostigmine bromide; healthy volunteers; follow-up up to 8 hours. The format is in vivo. How it is done: The ability of the NK1-antagonists for preventing the adverse effects of pyridostigmine bromide in humans is tested.
A Phase I study is conducted in human subjects receiving a single oral dose of pyridostigmine bromide with or without a single oral dose of aprepitant, as a representative NK1-antagonist. The study was a single center, single-blind, placebo-controlled study.
To be enrolled in the study, participants are to meet the following inclusion/ex elusion criteria:
• 1. Male or female volunteers between the ages of 18 and 60 years inclusive are required to be in good health, to refrain from consuming xanthine, quinine and caffeine containing beverages, and to refrain from prolonged intensive physical exercise during the study conduct. • 2. […] Subjects had to be in good health according to their medical history including personal and family psychiatric history, physical examination, ECG, vital signs, and laboratory tests. […] Subjects had to be able to swallow multiple pills simultaneously. Key Exclusion Criteria • 1. Any clinically relevant acute or chronic disease which could interfere with the subjects' safety during the trial, expose them to undue risk, or interfere with the study objectives. • 2. History or presence of gastrointestinal, hepatic, or renal disease or other condition known to interfere with the absorption, distribution, metabolism or excretion of drugs. • 3. […]

The values that follow come from patent US11752141B2, “Pharmaceutical compositions and methods utilizing neostigmine and an NK-1 antagonist for treating myasthenia gravis” (priority 2017, dated 2023).

As to `C[C@@H](O[C@H]1OCCN(Cc2nc(=O)[nH][nH]2)[C@H]1c1ccc(F)cc1)c1cc(C(F)(F)F)cc(C(F)(F)F)c1` [aprepitant, 5-[[(2R,3S)-2-[(1R)-1-[3,5-bis(trifluoromethyl)phenyl]ethoxy]-3-(4-fluorophenyl)-4-morpholinyl]methyl]-1,2-dihydro-3H-1,2,4-triazol-3-one], the “occurrence of gastro-intestinal AEs with pyridostigmine” value is listed as “prevents or attenuates”.
